From article doi:10.1101/2023.11.24.568596v1 (biorxiv, 2023)

What was measured:
Conditions in all cases: binder
[1] = target: FGFR2 (Homo sapiens, UniProt P21802)
[2] = target: Erk2 (Homo sapiens, UniProt P28482)
[3] = target: T1, MAP2K6 (Homo sapiens, UniProt P52564)
T1 sequence (P52564 1-334): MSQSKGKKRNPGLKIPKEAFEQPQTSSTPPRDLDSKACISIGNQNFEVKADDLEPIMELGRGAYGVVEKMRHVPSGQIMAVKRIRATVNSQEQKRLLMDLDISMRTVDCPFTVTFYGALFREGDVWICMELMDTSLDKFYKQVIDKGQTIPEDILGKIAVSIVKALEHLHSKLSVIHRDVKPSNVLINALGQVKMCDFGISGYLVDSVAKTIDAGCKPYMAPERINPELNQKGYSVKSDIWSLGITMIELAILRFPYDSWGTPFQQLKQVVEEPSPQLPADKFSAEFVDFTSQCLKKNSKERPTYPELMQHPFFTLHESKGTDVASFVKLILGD

[4] = target: T2, MAP3K5 (Homo sapiens, UniProt Q99683)
T2 sequence (Q99683 1-1374): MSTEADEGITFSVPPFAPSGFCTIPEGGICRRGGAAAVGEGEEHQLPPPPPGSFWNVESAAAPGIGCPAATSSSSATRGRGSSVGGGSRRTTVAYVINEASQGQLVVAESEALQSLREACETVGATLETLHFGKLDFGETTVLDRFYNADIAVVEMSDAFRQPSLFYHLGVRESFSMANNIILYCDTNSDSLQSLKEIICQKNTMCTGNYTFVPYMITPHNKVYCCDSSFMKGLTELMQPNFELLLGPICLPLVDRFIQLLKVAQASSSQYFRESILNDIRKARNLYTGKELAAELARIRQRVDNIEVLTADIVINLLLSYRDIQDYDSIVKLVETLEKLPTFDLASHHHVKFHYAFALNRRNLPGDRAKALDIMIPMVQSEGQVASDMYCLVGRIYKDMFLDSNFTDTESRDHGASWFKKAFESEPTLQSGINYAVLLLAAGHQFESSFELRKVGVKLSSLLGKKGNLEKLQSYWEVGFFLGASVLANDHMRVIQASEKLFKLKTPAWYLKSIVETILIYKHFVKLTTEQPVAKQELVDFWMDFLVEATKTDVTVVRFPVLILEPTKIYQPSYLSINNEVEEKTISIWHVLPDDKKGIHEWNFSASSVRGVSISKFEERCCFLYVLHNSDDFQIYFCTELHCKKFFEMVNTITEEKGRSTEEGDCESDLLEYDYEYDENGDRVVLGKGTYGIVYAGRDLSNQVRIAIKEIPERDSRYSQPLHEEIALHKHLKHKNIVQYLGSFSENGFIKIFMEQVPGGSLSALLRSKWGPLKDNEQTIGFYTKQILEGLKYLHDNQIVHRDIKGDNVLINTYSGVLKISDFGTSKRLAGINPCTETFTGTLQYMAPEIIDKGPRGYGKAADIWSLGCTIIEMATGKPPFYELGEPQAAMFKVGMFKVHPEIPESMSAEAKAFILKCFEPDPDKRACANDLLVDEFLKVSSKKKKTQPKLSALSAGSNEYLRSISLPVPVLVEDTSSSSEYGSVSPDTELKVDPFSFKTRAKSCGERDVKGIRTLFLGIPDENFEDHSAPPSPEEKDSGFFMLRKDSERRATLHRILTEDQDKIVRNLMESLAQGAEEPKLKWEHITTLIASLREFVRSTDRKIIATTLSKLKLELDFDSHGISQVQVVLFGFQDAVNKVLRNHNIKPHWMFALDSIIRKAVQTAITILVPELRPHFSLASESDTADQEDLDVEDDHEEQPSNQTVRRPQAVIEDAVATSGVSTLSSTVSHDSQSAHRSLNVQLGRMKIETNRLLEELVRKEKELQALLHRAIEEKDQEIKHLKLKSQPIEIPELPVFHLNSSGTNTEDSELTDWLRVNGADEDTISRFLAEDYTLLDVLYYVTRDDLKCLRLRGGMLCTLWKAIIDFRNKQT

[5] = target: T3, DRAK2 (Homo sapiens, UniProt O94768)
T3 sequence (O94768 1-372): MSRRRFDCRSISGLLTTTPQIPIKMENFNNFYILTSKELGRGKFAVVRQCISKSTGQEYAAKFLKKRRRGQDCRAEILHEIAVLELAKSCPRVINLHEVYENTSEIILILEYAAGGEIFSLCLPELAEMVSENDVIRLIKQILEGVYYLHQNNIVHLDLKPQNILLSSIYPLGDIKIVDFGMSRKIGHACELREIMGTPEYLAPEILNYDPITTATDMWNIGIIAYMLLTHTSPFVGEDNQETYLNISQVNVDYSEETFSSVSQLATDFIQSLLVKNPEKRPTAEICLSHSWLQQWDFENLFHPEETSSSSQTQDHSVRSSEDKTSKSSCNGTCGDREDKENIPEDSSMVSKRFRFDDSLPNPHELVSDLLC

Erk2, sequence (P28482 whole entry): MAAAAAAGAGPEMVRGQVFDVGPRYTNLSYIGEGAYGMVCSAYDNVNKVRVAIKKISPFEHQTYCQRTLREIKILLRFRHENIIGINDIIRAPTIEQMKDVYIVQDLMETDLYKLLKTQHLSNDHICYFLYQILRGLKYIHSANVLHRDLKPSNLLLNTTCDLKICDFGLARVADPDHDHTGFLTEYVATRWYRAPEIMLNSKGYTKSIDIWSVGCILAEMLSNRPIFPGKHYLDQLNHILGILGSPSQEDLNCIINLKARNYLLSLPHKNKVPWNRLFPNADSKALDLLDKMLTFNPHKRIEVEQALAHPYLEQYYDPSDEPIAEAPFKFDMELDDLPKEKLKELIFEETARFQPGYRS
FGFR2, sequence (P21802 whole entry): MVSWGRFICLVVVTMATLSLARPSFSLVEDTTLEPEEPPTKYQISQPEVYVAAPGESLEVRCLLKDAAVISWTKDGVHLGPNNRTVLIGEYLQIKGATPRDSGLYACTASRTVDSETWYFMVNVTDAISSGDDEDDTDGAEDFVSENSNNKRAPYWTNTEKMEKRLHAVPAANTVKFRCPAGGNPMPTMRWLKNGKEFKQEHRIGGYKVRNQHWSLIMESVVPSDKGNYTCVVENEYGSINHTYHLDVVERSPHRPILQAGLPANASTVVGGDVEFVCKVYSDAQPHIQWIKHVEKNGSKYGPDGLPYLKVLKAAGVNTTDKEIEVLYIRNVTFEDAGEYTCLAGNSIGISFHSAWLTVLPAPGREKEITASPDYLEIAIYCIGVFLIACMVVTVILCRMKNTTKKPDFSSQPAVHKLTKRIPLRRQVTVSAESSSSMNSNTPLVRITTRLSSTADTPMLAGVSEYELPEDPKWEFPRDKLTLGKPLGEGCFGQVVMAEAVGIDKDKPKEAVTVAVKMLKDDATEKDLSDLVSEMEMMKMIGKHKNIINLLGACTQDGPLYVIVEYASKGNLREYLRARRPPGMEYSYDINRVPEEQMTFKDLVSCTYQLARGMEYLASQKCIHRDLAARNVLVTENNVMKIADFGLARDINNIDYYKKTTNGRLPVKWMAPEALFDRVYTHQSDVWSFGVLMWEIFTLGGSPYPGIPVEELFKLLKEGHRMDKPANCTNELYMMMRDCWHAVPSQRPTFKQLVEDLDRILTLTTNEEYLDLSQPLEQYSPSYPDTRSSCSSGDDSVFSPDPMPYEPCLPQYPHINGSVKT

## CNc1ncc2cc(-c3ccc(-c4cccc(C)n4)cc3Cl)c(=O)n(CCCCN)c2n1 [compound 20, MRLW5]
[1]
  ΔTm MRLW5 (20): 1.9 °C
[2]
  ΔTm MRLW5 (20): 1.3 °C
[3]
  ΔTm MRLW5 (20): 5.7 °C
[4]
  ΔTm MRLW5 (20): 12.3 °C
[5]
  ΔTm MRLW5 (20): 0.7 °C

## CNc1ncc2cc(-c3ccc(-c4cccc(C)n4)cc3Cl)c(=O)n(CCC3CCNCC3)c2n1 [compound 22, 6-(2-Chloro-4-(6-methylpyridin-2-yl)phenyl)-2-(methylamino)-8-(2-(piperidin-4-yl)ethyl)pyrido[2,3-d]pyrimidin-7(8H)-one]
[1]
  ΔTm 22: 3.9 °C
[2]
  ΔTm 22: 2.8 °C
[3]
  ΔTm 22: 5.6 °C
[4]
  ΔTm 22: 12.0 °C
[5]
  ΔTm 22: 2.7 °C

## CNc1ncc2cc(-c3ccc(-c4cccc(C)n4)cc3Cl)c(=O)n(C[C@H]3CC[C@H](N)CC3)c2n1 [compound 23, 23]
[1]
  ΔTm 23: 2.9 °C
[2]
  ΔTm 23: 2.7 °C
[3]
  ΔTm 23: 8.3 °C
[4]
  ΔTm 23: 12.4 °C
[5]
  ΔTm 23: 1.7 °C

## Cc1cccc(-c2ccc(-c3cc4cnc(NC(CO)CO)nc4n(CCCCN)c3=O)c(Cl)c2)n1 [compound 24, 8-(4-Aminobutyl)-6-(2-chloro-4-(6-methylpyridin-2-yl)phenyl)-2-((1,3-dihydroxypropan-2-yl)amino)pyrido[2,3-d]pyrimidin-7(8H)-one]
[1]
  ΔTm MR24 (24): 0.8 °C
[2]
  ΔTm MR24 (24): -0.9 °C
[3]
  ΔTm MR24 (24): 2.8 °C
[4]
  ΔTm MR24 (24): 9.0 °C
[5]
  ΔTm MR24 (24): 2.9 °C

## Cc1cccc(-c2ccc(-c3cc4cnc(NCCCc5ccc(N)cc5)nc4n(CCCCN)c3=O)c(Cl)c2)n1 [compound 25, 8-(4-Aminobutyl)-2-((3-(4-aminophenyl)propyl)amino)-6-(2-chloro-4-(6-methylpyridin-2-yl)phenyl)pyrido[2,3-d]pyrimidin-7(8H)-one]
[1]
  ΔTm 25: 1.7 °C
[2]
  ΔTm 25: 3.1 °C
[3]
  ΔTm 25: 8.3 °C
[4]
  ΔTm 25: 11.8 °C
[5]
  ΔTm 25: 7.5 °C

## Cc1cccc(-c2ccc(-c3cc4cnc(NCCCN5CCOCC5)nc4n(CCCCN)c3=O)c(Cl)c2)n1 [compound 26, MR26]
[1]
  ΔTm MR26 (26): 1.4 °C
[2]
  ΔTm MR26 (26): 0.2 °C
[3]
  ΔTm MR26 (26): 3.1 °C
[4]
  ΔTm MR26 (26): 9.8 °C
[5]
  ΔTm MR26 (26): 5.1 °C
